From patent US4331666A, “3-[(8-Carboxy-6-tetraz olo[1,5-b]pyridazinyl)-thiomethyl]-7-[2-(2-amino-4-thiazolyl)-2-methoxyim ino-acetamido]-3-cephem-4-carboxylic acid” (Farmitalia Carlo Erba S.p.A., priority 1979, dated 1982) come the findings set out here.

Read-outs that look alike come from different tables or passages of the source. Bounds are passed on as bounds.

Data set [1] concerns streptococci. Type of data set: cell-based.
Data set [2] deals with mice infected with Escherichia coli G, Klebsiella pneumoniae ATCC 10031, Proteus mirabilis ATCC 9921, Escherichia coli Tem., Haemophilus influenzae Salmonella …. The experiment in a line: in vivo activity in infected mice. Particulars: in words.
The nature of data set [3]: approximate acute toxicity (LD50) in the mouse. To be noted: in vivo, single intravenous administrations of increasing doses, measured on the seventh day. From the text: The toxicity of the compounds of the invention is quite negligible and therefore they can be safely used in therapy. […] Analogous activity and toxicity data have been found for the other compounds of the invention.

The subject of data set [4] is Bacteroides fragilis VPL 9032. Description: in vitro activity against Bacteroides fragilis VPL 9032. Type of data set: cell-based.
Data set [5] has as its system Gram-negative bacteria. Description: antibacterial activity against most Gram-negative bacteria (compared with Cefazolin and Cefuroxime). It is filed as cell-based.
A short description of data set [6]: plasma half-life in the mouse after intravenous injection. Particulars: in vivo.
The nature of data set [7]: plasma half-life in the rat after intravenous injection. Particulars: in vivo.
The subject of data set [8] is Pseudomonas aeruginosa G. The experiment in a line: in vitro activity against Pseudomonas aeruginosa G. Type of data set: cell-based.
Data set [9] has as its system 10 strains of Pseudomonas aeruginosa, 4 strains of Proteus vulgaris and 4 strains of Proteus morganii. The experiment in a line: test on a series of strains of Pseudomonas aeruginosa, Proteus vulgaris and Proteus morganii. Type of data set: cell-based. To be noted: 10 strains Pseudomonas aeruginosa, 4 strains Proteus vulgaris, 4 strains Proteus morganii.

As a reminder, the LD50 is the dose expected to kill half of the subjects tested. Higher therefore signals a less toxic substance. As usually defined, the half-life is the time in which the quantity being followed falls by half. Read a low half-life as rapid decline. On to `CON=C(C(=O)NC1C(=O)N2C(C(=O)O)=C(CSc3cc(C(=O)O)c4nnnn4n3)CSC12)c1csc(N)n1` (stereo not drawn) [FCE 20485, 3-[(8-carboxy-6-tetrazolo[1,5-b]pyridazinyl)-thiomethyl]-7-[2-(2-amino-4-thiazolyl)-2-methoxyiminoacetamido]-3-cephem-4-carboxylic acid (syn-isomer)], for which the “times more active than Cefazolin against streptococci” value in [1] is “about 5 times”. Moreover, the “activity in vivo tests” value in data set [2] is given as “high activity”. In data set [3], this compound returned an LD50 at 168 h of more than 2000 mg/kg. Moreover, the in vitro activity result in data set [4] and in data set [8] was “significant in vitro activity” in each case. Further, the “times more active than Cefazolin against most Gram-negative bacteria” value in data set [5] (ratio vs Cefazolin) is on record as “about 32 times”. In addition, the “times more active than Cefuroxime against most Gram-negative bacteria” value in data set [5] (ratio vs Cefuroxime) is approximately 40 times. Moreover, the half-life in data set [6] was approximately 1.5 h; in data set [7] it was approximately 1.67 h.

For the compound `CON=C(C(=O)NC1C(=O)N2C(C(=O)O)=C(CSc3cc(N)c4nnnn4n3)CSC12)c1csc(N)n1` (stereo not drawn) [FCE 20127, 3-[(8-amino-6-tetrazolo[1,5-b]pyridazinyl)-thiomethyl]-7-[2-(2-amino-4-thiazolyl)-2-methoxyiminoacetamido]-3-cephem-4-carboxylic acid (syn-isomer)], the “times more active than Cefazolin against streptococci” value in data set [1] (ratio vs Cefazolin, streptococci) is reported as “about 24 times”. In data set [9], the “activity compared with Cefazolin and Cefuroxime” value was “several times more active than Cefazolin and Cefuroxime”. For the same compound, the “times more active than Cefazolin and Cefuroxime against most Gram-negative bacteria” value in [5] (ratio vs Cefazolin and Cefuroxime) is given as “about 30 times”.
